Among the test systems are ACHN renal; K-562 leukemia; KM12 colon; LOX IMVI melanoma; OVCAR-8 ovarian; SF-295 CNS; SF-539 CNS; SNB-75 CNS; UACC-257 melanoma; UO-31 renal.
Common to all, as to assay: NCI-60 cell line screen, 48 h

For nine compounds, TGI and GI50 results are on record in PubChem BioAssay (NCI).

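How tested: cells in 96-well plates exposed to compound for 48 hours at five concentrations. GI50 marks 50% less growth. TGI: concentration producing complete growth inhibition.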

`O=C(O[C@H]1CCN2C[C@H]3C[C@H](CN4C(=O)CCC[C@H]34)[C@@H]2C1)c1ccc(O)cc1`: the TGI in the assay with ACHN renal, with K-562 leukemia, in the assay with KM12 colon, in the assay with LOX IMVI melanoma, with OVCAR-8 ovarian and with SF-295 CNS was over 100 µM in each case. Besides, the TGI in the assay with SF-539 CNS, in the assay on SNB-75 CNS, in the assay on UACC-257 melanoma and with UO-31 renal was over 100 µM throughout.

Consider `COc1cc(/C=C/C(=O)c2c(C)nc3ccccc3c2C)ccc1OCCCN1CCN(C(=O)c2ccco2)CC1`, for which the GI50 in the assay with ACHN renal was 10.2 µM; in the assay on K-562 leukemia it was 2.57 µM; in the assay with KM12 colon, 11.4 µM; with LOX IMVI melanoma it was 7.75 µM; in the assay with OVCAR-8 ovarian, 8.43 µM; with SF-295 CNS, 8.42 µM. Further, the GI50 in the assay on SF-539 CNS was 14.4 µM; with SNB-75 CNS, 12.8 µM; in the assay with UACC-257 melanoma, 3.28 µM; in the assay on UO-31 renal it was 4 µM. Also, the TGI is 25.1 µM in the assay on ACHN renal; 10.6 µM in the assay on K-562 leukemia; 24.3 µM with KM12 colon; 21.5 µM in the assay on LOX IMVI melanoma; 42.4 µM in the assay with OVCAR-8 ovarian; 25.1 µM in the assay with SF-295 CNS. Also, the TGI in the assay with SF-539 CNS was determined as 27.5 µM; in the assay on SNB-75 CNS, 27.6 µM; in the assay on UACC-257 melanoma it was 16.1 µM; in the assay with UO-31 renal, 19.6 µM.

Regarding `O=C1NC(c2cccc(OCc3ccccc3)c2)Nc2ccccc21` (configuration not stated), the TGI in the assay on ACHN renal was found to be 28.7 µM; with K-562 leukemia, 35.6 µM; with KM12 colon it was 73.9 µM; with LOX IMVI melanoma, 17.5 µM; in the assay on OVCAR-8 ovarian, 27.5 µM; with SF-295 CNS it was 4.12 µM. The TGI in the assay on SF-539 CNS was found to be 0.708 µM; with SNB-75 CNS it was 0.896 µM; with UACC-257 melanoma, 50.7 µM; with UO-31 renal, 55 µM.

`COC(=O)/C(=N\NC(N)=O)C(C(=O)C=C(C)C)C(=O)C(=O)Nc1ccc(Cl)c(Cl)c1` (configuration not stated): the TGI in the assay with ACHN renal, with K-562 leukemia, in the assay with KM12 colon, with LOX IMVI melanoma, in the assay on OVCAR-8 ovarian and in the assay on SF-295 CNS was over 100 µM in each case. Besides, the TGI with SF-539 CNS, in the assay on SNB-75 CNS, with UACC-257 melanoma and with UO-31 renal was over 100 µM in each case.

Take `Cc1nccc2c3ccc(OCc4cn(-c5ccc(Cl)cc5)nn4)cc3n(CC(C)C)c12`: the GI50 in the assay on ACHN renal was 3.62 µM; in the assay with K-562 leukemia, 0.992 µM; with KM12 colon, 2.69 µM; in the assay with LOX IMVI melanoma, 3.63 µM; with OVCAR-8 ovarian it was 2.73 µM; with SF-295 CNS it was 1.25 µM. The GI50 was 2.82 µM with SF-539 CNS, 5.09 µM with SNB-75 CNS, 4.62 µM in the assay on UACC-257 melanoma and 1.72 µM in the assay on UO-31 renal. The TGI with ACHN renal is 9.59 µM; in the assay with K-562 leukemia, over 33.3 µM; with KM12 colon it was 16.8 µM; in the assay on LOX IMVI melanoma, over 33.3 µM; with OVCAR-8 ovarian, 16.2 µM; in the assay on SF-295 CNS, 7.64 µM. Besides, the TGI was 10.9 µM in the assay on SF-539 CNS, 14.4 µM in the assay with SNB-75 CNS, 16.8 µM with UACC-257 melanoma and 14 µM in the assay on UO-31 renal.

For `CCOP1(=O)C=C(C)C(=C(Cl)Cl)C(C)=C1` (configuration not stated), the TGI in the assay on ACHN renal is 68.1 µM; with K-562 leukemia it was 16.3 µM; in the assay with KM12 colon, 5.11 µM; with LOX IMVI melanoma, over 100 µM; with OVCAR-8 ovarian, over 100 µM; with SF-295 CNS, 39.8 µM. For the same compound, the TGI in the assay with SF-539 CNS was 66.7 µM; in the assay on SNB-75 CNS, over 100 µM; in the assay on UACC-257 melanoma, 89 µM; in the assay with UO-31 renal it was 52.9 µM. Also, the figures for the GI50 in the assay with LOX IMVI melanoma, with SNB-75 CNS and in the assay with UACC-257 melanoma were 22.8 µM, 30 µM and 11.5 µM, respectively.

For `CCCN1CCC(c2ccc(Nc3nc(Nc4cc(F)ccc4C(N)=O)c4cc[nH]c4n3)c(OC)c2)CC1`, the GI50 in the assay with ACHN renal was 3.13 µM; in the assay on K-562 leukemia, 0.681 µM; in the assay on KM12 colon, 2.88 µM; in the assay with LOX IMVI melanoma, 0.365 µM; with OVCAR-8 ovarian, 2.23 µM; in the assay on SF-295 CNS, 3.86 µM. Further, the GI50 in the assay on SF-539 CNS is 2.95 µM; in the assay with SNB-75 CNS it was 4 µM; in the assay with UACC-257 melanoma, 0.572 µM; with UO-31 renal, 2.14 µM. Also, the TGI turned out to be 7.03 µM in the assay with ACHN renal; 2.8 µM in the assay on K-562 leukemia; 6.12 µM in the assay on KM12 colon; 5.84 µM in the assay on LOX IMVI melanoma; 7.79 µM with OVCAR-8 ovarian; 8.37 µM in the assay on SF-295 CNS. Also, the TGI with SF-539 CNS worked out at 6.76 µM; in the assay with SNB-75 CNS, 7.55 µM; in the assay on UACC-257 melanoma, 5.2 µM; with UO-31 renal, 6.54 µM.

On to `CCN(CC)CCNc1ccc2nc(C)n3c4ccc(O)cc4c(=O)c1c23`, for which the TGI is 3.78 µM with ACHN renal; 13.4 µM in the assay on K-562 leukemia; 17.4 µM in the assay on KM12 colon; 2.04 µM in the assay with LOX IMVI melanoma; 3.23 µM in the assay with OVCAR-8 ovarian; 9.81 µM in the assay with SF-295 CNS. Besides, the TGI in the assay on SF-539 CNS was 16.2 µM; in the assay on SNB-75 CNS, 14.7 µM; with UACC-257 melanoma it was 21.2 µM; in the assay with UO-31 renal, 12.1 µM.

With `COc1ccc(N(C)c2nc(Cl)nc3cnn(C)c23)cc1`, the GI50 in the assay with ACHN renal is under 0.0145 µM; in the assay with K-562 leukemia, under 0.01 µM; in the assay on KM12 colon, under 0.01 µM; with LOX IMVI melanoma, under 0.011 µM; in the assay on OVCAR-8 ovarian, 0.0192 µM; in the assay on SF-295 CNS it was under 0.01 µM. Moreover, the GI50 in the assay on SF-539 CNS is under 0.01 µM; in the assay on SNB-75 CNS, under 0.01 µM; with UACC-257 melanoma it was 29.8 µM; with UO-31 renal, under 0.0383 µM. Besides, the TGI with ACHN renal, with K-562 leukemia, in the assay with KM12 colon, with LOX IMVI melanoma, in the assay with OVCAR-8 ovarian and in the assay on SF-295 CNS was over 100 µM each time. Moreover, the TGI in the assay on SNB-75 CNS is over 100 µM; in the assay with UACC-257 melanoma, over 100 µM; in the assay on UO-31 renal, over 95.5 µM.
